In one data set the target is Cathepsin B (Homo sapiens, UniProt P07858). The data set is described as follows: Inhibition of human cathepsin B at 1 uM incubated for 30 mins by fluorometric analysis.
Data set [1] is described as follows: Stability in CD-1 mouse plasma assessed as half life at 2 uM measured upto 120 mins by LC-MS/MS analysis. Format: ADME, cell-free.
Data set [2] in a line: in vitro. The following applies: chlorocebus sabaeus, Vero E6 cells.
For the next data set, the system named is SARS-CoV-2. The data set is described as follows: microbe, parasite or virus in culture. The following applies: Severe acute respiratory syndrome coronavirus 2, Vero C1008, 48 h.
Data set [3] in a line: Dissociation constant, pKa of the compound. Format: physicochemical.
Data set [4] in a line: Metabolic stability in human plasma measured at 2 hrs by LC-MS analysis. Format: ADME, cell-free. The following applies: read-out: Stability.
A further data set relates to Human coronavirus 229E. As to the kind of experiment: Antiviral activity against Human coronavirus 229E infected in human MRC5 cells assessed as reduction in virus-induced cytopathic effect incubated for 3 days by Celltiter-Glo assay. The note with it: MRC5, 72 h. It counts as functional, organism-based. For orientation: Damage to the host cells serves as the signal in cytopathic effect assays.

The nature of data set [5]: Selectivity index, ratio of CC50 for cytotoxicity against human A549 cells assessed as reduction in cell viability to EC50 for antiviral activity against SARS-CoV-2 3CL protease. Format: toxicity, cell-based. The following applies: read-out: Ratio CC50/EC50.
Data set [6] can be described thus: Efflux ratio of apparent permeability across basal to apical membrane over apical to basal membrane in human Caco-2 cells at 2 uM with pH 7.4 incubated for 2 hrs by LC-MS analysis. Format: ADME, cell-based. The note with it: caco-2, pH 7.4, 2 h. (Passage across Caco-2 layers is used to estimate intestinal permeability.)
A short description of data set [7]: Stability of compound in glutathione at pH 7.4 after 24 hrs by LC-MS analysis. Format: physicochemical. The following applies: read-out: Stability.
Data set [8] in a line: Selectivity index, ratio of CC50 for cytotoxicity against African green monkey VeroE6 cells assessed as reduction in cell viability to EC50 for antiviral activity against SARS-CoV-2 3CL protease. Format: toxicity, cell-based. The note with it: read-out: Ratio.
Data set [9] in a line: Cytotoxicity against human Huh-7 cells assessed as reduction in cell viability incubated for 24 hrs by Celltiter-glo luminescent cell viability assay. It counts as toxicity, cell-based.
The target of the next data set is Cathepsin S (Homo sapiens, UniProt P25774). The data set is described as follows: Inhibition of human cathepsin S at 1 uM incubated for 30 mins by fluorometric analysis.
Data set [10] is described as follows: in vitro. The note with it: human, A549 cells.
The nature of data set [11]: Cytotoxicity against human MRC5 cells assessed as reduction in cell viability incubated for 24 hrs by Celltiter-glo luminescent cell viability assay. Format: toxicity, cell-based.
The nature of data set [12]: Apparent permeability from basolateral to apical side in human Caco-2 cells at 2 uM with pH 7.4 incubated for 2 hrs by LC-MS analysis. Format: ADME, cell-based. The note with it: Caco-2, pH 7.4.
A short description of data set [13]: Metabolic stability in CD-1 mouse Hepatocytes assessed as half life at 3 uM measured upto 90 mins by LC-MS/MS analysis. It counts as ADME, cell-based, Hepatocyte. The following applies: CD-1, mouse.
The nature of data set [14]: Antiviral activity against Human coronavirus OC43 infected in human Huh-7 cells assessed as reduction in virus-induced cytopathic effect incubated for 7 days by Celltiter-Glo assay. Format: functional, cell-based. The following applies: Betacoronavirus 1, OC43, Huh-7, 168 h.
Data set [15] is described as follows: Microsomal stability in CD-1 mouse liver microsomes assessed as half life at 1 uM measured upto 60 mins in presence of NADPH by LC-MS/MS analysis. Format: ADME, Microsome. The note with it: CD-1, mouse, liver microsomes. (In general: Liver microsomes are vesicles of endoplasmic reticulum, rich in cytochrome P450 enzymes.)
Data set [16] can be described thus: Lipophilicity, log D of the compound at phosphate buffer pH 7.4 by shake flask method based LC-MS/MS analysis. It counts as physicochemical.
A short description of data set [17]: in vitro. The following applies: human, Huh-7 cells.

Chain of Cathepsin S (P25774 115-331 limits assumed): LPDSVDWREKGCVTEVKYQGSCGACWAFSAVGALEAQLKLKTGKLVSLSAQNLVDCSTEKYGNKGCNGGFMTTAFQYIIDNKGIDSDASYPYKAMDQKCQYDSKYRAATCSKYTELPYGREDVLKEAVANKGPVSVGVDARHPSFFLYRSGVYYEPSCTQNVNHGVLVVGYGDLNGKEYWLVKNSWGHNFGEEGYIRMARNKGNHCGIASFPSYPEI

In general, inhibition refers to the change of the read-out against control, counted positive when it falls. Usually half-life stands for the time in which the quantity being followed falls by half. In general, CC50 refers to the concentration that lowers cell viability or growth by half. One may read the EC50 as the concentration needed to bring the measured effect to its halfway point. Usually pKa stands for the negative logarithm of the acid dissociation constant. As usually defined, the Papp B→A is how fast a substance crosses the layer from the basolateral side. What is called logD is the decadic logarithm of the distribution of all forms, ionised or not, between an organic phase and buffer at a given pH. For `COc1cccc2[nH]c(C(=O)N[C@@H](CC(C)C)C(=O)N[C@@H](C[C@@H]3CCCNC3=O)C(=O)COC(=O)c3c(C(F)(F)F)cc(C)nc3C)cc12`, the inhibition amounted to 95% at Cathepsin B and 98.4% against Cathepsin S. In addition, the half-life at 2 µM in data set [1] is > 289 min. Besides, the CC50 at 24 h was > 200000 nM in the data set “in vitro [2]”, 67600 nM in data set [9], > 200000 nM in the data set “in vitro [10]” and > 100000 nM in [11]. Besides, the EC50 with SARS-CoV-2 was found to be 470 nM; in the data set with Human coronavirus 229E, 30 nM; in [14] it was 45 nM. Also, the pKa in data set [3] was 1.7. In addition, the remaining at 2 h in [4] worked out at 99%. For the same compound, the selectivity ratio in data set [5] and in data set [8] was > 426 each time. Also, in data set [6], the Ratio was found to be 1146. Further, the remaining at 24 h in [7] was > 80%. Also, the Papp B→A at 2 h, 2 µM in data set [12] stood at 28.9 ×10⁻⁶ cm/s. In data set [13], the half-life at 3 µM was found to be 1.9 min. Besides, in data set [15], the half-life at 1 µM was 1 min. The same compound showed a logD in data set [16] of 4.11.

Consider `CCC(CC)COC(=O)[C@H](C)N[P@](=O)(OC[C@H]1O[C@@](C#N)(c2ccc3c(N)ncnn23)[C@H](O)[C@@H]1O)Oc1ccccc1`, for which the selectivity ratio in “in vitro [17]” was found to be 518. In addition, the EC50 with Human coronavirus 229E stood at 35 nM; in [14], 20 nM. In addition, the CC50 at 24 h was 10400 nM in data set [9] and > 100000 nM in data set [11].

The values are drawn from ChEMBL document CHEMBL5154637, “Peptidomimetic α-Acyloxymethylketone Warheads with Six-Membered Lactam P1 Glutamine Mimic: SARS-CoV-2 3CL Protease Inhibition, Coronavirus Antiviral Activity, and in Vitro Biological Stability” (J Med Chem, 2022).
